Where two headings read alike, the source gives them in different places.
Key:
MOLM13 cells (FLT3-ITD) = assay: Growth inhibition IC50 in FLT3-ITD AML cell line MOLM13; type: cell-based; conditions: Homo sapiens
[1] = system: SW48 cell line (EGFR G719S); assay: Growth inhibition IC50 in EGFR G719S colorectal cancer cell line SW48; type: cell-based; conditions: Homo sapiens, CTG, n = 2, read-out: Half Inhibitory Concentration (IC50) Mean
[2] = system: U118MG cells (FIG-ROS1 gene fusion); assay: Growth inhibition IC50 in ROS1 mutant glioblastoma cell line U118MG (72 hours); type: cell-based; conditions: Homo sapiens, U-118-MG
ALK protein in SR cells = target: T1, ALK protein in SR cells (Homo sapiens, UniProt Q9UM73); assay: Block of ALK degradation by proteosome inhibitors MG132 and MLN4924 in SR cells; type: cell-based
T1 construct: NPM (nucleophosmin, NPM1, P06748) fusion partner; host or cells: SR (ALCL) cells; the other entry of the earlier key: NPM1 (P06748, Nucleophosmin)
Excerpt: To further validate the degradation effect act through proteosome mediated pathway, we also treated cells with two different proteosome inhibitors MG132 and MLN4924 to block protein degradation (FIG. 16).

SR (NPM-ALK) cells = assay: Growth inhibition IC50 in ALCL SR cells (CCK8/WST, 72 hours); type: cell-based; conditions: SR cells, WST, Brigatinib-based PROTAD molecules (Table 3)
[3] = target: T2, ALK protein in SR (NPM-ALK) cells (Homo sapiens, UniProt Q9UM73); assay: Western blot of ALK protein level (degradation, DC50), ALK phosphorylation and downstream signaling in SR cells; type: cell-based; conditions: for DC50: ALK protein degradation in SR cells
T2 construct: NPM (nucleophosmin, NPM1, P06748) fusion partner; host or cells: SR (ALCL) cells; the other entry of the earlier key: NPM1 (P06748, Nucleophosmin)

[4] = system: ALK positive non-small cell lung cancer; conditions: patients; cited from earlier work
[5] = system: PC9Brc1 (EGFR, exon 19 del+T790M) cells; assay: Growth inhibition IC50 in EGFR mutant lung cancer PC9Brc1 cells; type: cell-based; conditions: CTB, n ≥ 3, read-out: Half Inhibitory Concentration (IC50) Mean
Ba/F3 (EML4-ALK/C1156Y) = target: T3, Ba/F3 (EML4-ALK/C1156Y) (Homo sapiens, UniProt Q9UM73, C1156Y, cells depend on it); assay: Growth inhibition IC50 in Ba/F3 cells expressing EML4-ALK C1156Y; type: cell-based
T3 construct: Q9HC35 (Echinoderm microtubule-associated protein-like 4)

[6] = system: NCI-H2228 (EML4-ALK, V3) cells; assay: Growth inhibition IC50 in lung adenocarcinoma H2228 cells (WST); type: cell-based; conditions: Homo sapiens, WST (Table 3)
Excerpt: Experiments were repeated at least three times.
Besides above, we also tested the dosage-dependent effects on the growth inhibition in H2228 cells. […] (Table 3).

Ba/F3 (EML4-ALK/L1196M) = target: T4, Ba/F3 (EML4-ALK/L1196M) (Homo sapiens, UniProt Q9UM73, L1196M, cells depend on it); assay: Growth inhibition IC50 in Ba/F3 cells expressing EML4-ALK L1196M; type: cell-based
T4 construct: Q9HC35 (Echinoderm microtubule-associated protein-like 4)

[7] = system: PC9 (EGFR, exon 19 del) cells; assay: Growth inhibition IC50 in EGFR mutant lung adenocarcinoma PC9 cells; type: cell-based; conditions: Homo sapiens
[8] = target: T5, ALK protein in H3122 (EML4-ALK) cells (Homo sapiens, UniProt Q9UM73); assay: Western blot of ALK protein level (degradation, DC50), ALK phosphorylation and downstream signaling in H3122 cells; type: cell-based; conditions: ALK protein degradation in H3122 cells
T5 construct: EML4 (Echinoderm microtubule-associated protein-like 4, Q9HC35) fusion partner, variant 1; host or cells: NCI-H3122 lung adenocarcinoma cells; the other entry of the earlier key: EML4 (Q9HC35, Echinoderm microtubule-associated protein-like 4)

[9] = Pharmacokinetics (PK) study in SD rat (IV, IP, PO; LC-MS/MS); type: in vivo; conditions: Sprague-Dawley, serum; for clearance: read-out: clearance rate, mean value
Description: SD rat were used to study the PK of ALK PROTAD compounds. ALK PROTAD compounds SIAIS164008, SIAIS164018, SIAIS164023 and SIAIS151118 were administrated into SD rat via three different routes: IV (Intravenous Injection), IP (Intraperitoneal Injection) and PO ([…]). Blood samples at different sampling time points up to 24 hours post dosing were collected from each animal and analyzed with LC-MS/MS to calculate the PK for each chemical.

Ba/F3 (EML4-ALK/WT) = target: T6, Ba/F3 (EML4-ALK/WT) (Homo sapiens, UniProt Q9UM73); assay: Growth inhibition IC50 in Ba/F3 cells expressing EML4-ALK wild type; type: cell-based
T6 construct: Q9HC35 (Echinoderm microtubule-associated protein-like 4)

[10] = MOLM-13, read-out: Half Inhibitory Concentration (IC50) Mean
[11] = 72 h, read-out: Half Inhibitory Concentration (IC50) Mean
[12] = MOLM-13, MOLM13 cells, n = 2, reagent CTG, read-out: Half Inhibitory Concentration (IC50) Mean
[13] = U118MG cells, 72 hours, n = 2, reagent CTG, read-out: Half Inhibitory Concentration (IC50) Mean
[14] = PC-9, PC9 cells, CTB, n ≥ 3, read-out: Half Inhibitory Concentration (IC50) Mean
[15] = IP, 2 mg/kg, read-out: serum half-life (converted)
[16] = IP, 2 mg/kg, read-out: time to maximal serum peak level (Tmax)
[17] = IV, single dose 2 mg/kg, read-out: serum clearance half-life (converted)
[18] = PO, 10 mg/kg, read-out: serum half-life (converted)

Structure (SMILES)	IC50 [1] [nM]	IC50 (SR (NPM-ALK) cells; 72 h) [nM]	IC50 [5] [nM]	GI50 (Ba/F3 (EML4-ALK/C1156Y)) [nM]	IC50 [6] [nM]	GI50 (Ba/F3 (EML4-ALK/L1196M)) [nM]	DC50 [3] [nM]	DC50 [8] [nM]	IC50 [7, 14] [nM]	also measured
CCc1cc2c(cc1N1CCC(N3CCOCC3)CC1)C(C)(C)c1[nH]c3cc(C#N)ccc3c1C2=O [Alectinib, reference compound]	800									IC50 (MOLM13 cells (FLT3-ITD); [10]): 255 nM; IC50 [2, 11]: 1480 nM
COc1cc(N2CCC(N3CCN(C(=O)CNc4cccc5c4C(=O)N(C4CCC(=O)N(C)C4=O)C5=O)CC3)CC2)ccc1Nc1ncc(Cl)c(Nc2ccccc2P(C)(C)=O)n1 (centres unmarked) [SIAIS1210003, 4-((2-(4-(1-(4-((5-chloro-4-((2-(dimethylphosphoryl)phenyl)amino)pyrimidin-2-yl)amino)-3-methoxyphenyl)piperidin-4-yl)piperazin-1-yl)-2-oxoethyl)amino)-2-(1-methyl-2,6-dioxopiperidin-3-yl)isoindoline-1,3-dione]										reduction of ALK protein level and its block by MG132 and MLN4924 (ALK protein in SR cells): no such effect
COc1cc(N2CCC(N3CCN(C(=O)CNc4cccc5c4CN(C4CCC(=O)NC4=O)C5=O)CC3)CC2)ccc1Nc1ncc(Cl)c(Nc2ccccc2P(C)(C)=O)n1 (centres unmarked) [SIAIS219073, 3-(4-((2-(4-(1-(4-((5-chloro-4-((2-(dimethylphosphoryl)phenyl)amino)pyrimidin-2-yl)amino)-3-methoxyphenyl)piperidin-4-yl)piperazin-1-yl)-2-oxoethyl)amino)-1-oxoisoindolin-2-yl)piperidine-2,6-dione]	> 20000	1.8 ± 1								IC50 (MOLM13 cells (FLT3-ITD); [12]): 373 nM; IC50 [2, 13]: > 20000 nM
COc1cc(N2CCC(N3CCN(C)CC3)CC2)ccc1Nc1ncc(Cl)c(Nc2ccccc2P(C)(C)=O)n1 [Brigatinib, reference compound]	2720		246	36.8	45.2	35.9				ALK protein levels, time- and dose-dependence ([3]; SR cells, 30 nM to 300 uM, 4-24 hours): did not affect ALK protein levels; ALK protein degradation ([3]; SR cells, western blot, 16 hours, up to 500 nM): did not degrade ALK proteins; disease control rate [4]: about 86%; response rate [4]: 55%; IC50 (MOLM13 cells (FLT3-ITD); MOLM-13): ~152 nM; IC50 (MOLM13 cells (FLT3-ITD); [10]): 152 nM; IC50 ([2]; 72 h): ~6800 nM; IC50 [2, 11]: 6800 nM; IC50 (SR (NPM-ALK) cells; 72 hours): 2.8 nM; IC50 ([7]; PC-9, read-out: Half Inhibitory Concentration (IC50) Mean): 102 nM
COc1cc(N2CCC(NC(=O)CCCCCCCC(=O)N[C@H](C(=O)N3C[C@H](O)C[C@H]3C(=O)NCc3ccc(-c4scnc4C)cc3)C(C)(C)C)CC2)ccc1Nc1ncc(Cl)c(Nc2ccccc2P(C)(C)=O)n1 [SIAIS164148]		1.5 ± 0.8	1340				1 to 10	1 to 50	153	
COc1cc(N2CCC(N3CCN(C(=O)CCOCCNc4cccc5c4C(=O)N(C4CCC(=O)NC4=O)C5=O)CC3)CC2)ccc1Nc1ncc(Cl)c(Nc2ccccc2P(C)(C)=O)n1 (centres unmarked) [SIAIS164007, 4-((2-(3-(4-(1-(4-((5-chloro-4-((2-(dimethylphosphoryl)phenyl)amino)pyrimidin-2-yl)amino)-3-methoxyphenyl)piperidin-4-yl)piperazin-1-yl)-3-oxopropoxy)ethyl)amino)-2-(2,6-dioxopiperidin-3-yl)isoindoline-1,3-dione]		3.8 ± 1.9	1610				1 to 10	10 to 50	358	
COc1cc(N2CCC(N3CCN(C(=O)CCCCNc4cccc5c4C(=O)N(C4CCC(=O)NC4=O)C5=O)CC3)CC2)ccc1Nc1ncc(Cl)c(Nc2ccccc2P(C)(C)=O)n1 (centres unmarked) [SIAIS164021, 4-((5-(4-(1-(4-((5-chloro-4-((2-(dimethylphosphoryl)phenyl)amino)pyrimidin-2-yl)amino)-3-methoxyphenyl)piperidin-4-yl)piperazin-1-yl)-5-oxopentyl)amino)-2-(2,6-dioxopiperidin-3-yl)isoindoline-1,3-dione]		7.4 ± 5	2440				0.1 to 0.5	1 to 10	434	concentration at which ALK proteins were degraded ([3]; SR cells, western blot): 1 nM
COc1cc(N2CCC(NC(=O)CCCNc3cccc4c3C(=O)N(C3CCC(=O)NC3=O)C4=O)CC2)ccc1Nc1ncc(Cl)c(Nc2ccccc2P(C)(C)=O)n1 (centres unmarked) [SIAIS151118, N-(1-(4-((5-chloro-4-((2-(dimethylphosphoryl)phenyl)amino)pyrimidin-2-yl)amino)-3-methoxyphenyl)piperidin-4-yl)-4-((2-(2,6-dioxopiperidin-3-yl)-1,3-dioxoisoindolin-4-yl)amino)butanamide]	1920	0.9 ± 0.2		129	346	146	1 to 10	1 to 50		IC50 (MOLM13 cells (FLT3-ITD); [12]): 101 nM; IC50 (MOLM13 cells (FLT3-ITD); MOLM-13, MOLM13 cells, read-out: IC50): 101 nM; bioavailability ([9]; IP, 2 mg/kg): 225%; half-life [9, 15]: 3.27 h; Tmax [9, 16]: ~1.67 h; clearance ([9]; IV, single dose 2 mg/kg): ~6.35 mL/min/kg; half-life [9, 17]: ~4.73 h; bioavailability ([9]; PO, 10 mg/kg): 36%; Tmax ([9]; PO, 10 mg/kg, read-out: Tmax): 3.33 h; half-life [9, 18]: 4.66 h; IC50 [2, 13]: 4260 nM; GI50 (Ba/F3 (EML4-ALK/WT)): 92 nM
COc1cc(N2CCC(N3CCN(C(=O)CCCCCCNc4cccc5c4C(=O)N(C4CCC(=O)NC4=O)C5=O)CC3)CC2)ccc1Nc1ncc(Cl)c(Nc2ccccc2P(C)(C)=O)n1 (centres unmarked) [SIAIS164023, 4-((7-(4-(1-(4-((5-chloro-4-((2-(dimethylphosphoryl)phenyl)amino)pyrimidin-2-yl)amino)-3-methoxyphenyl)piperidin-4-yl)piperazin-1-yl)-7-oxoheptyl)amino)-2-(2,6-dioxopiperidin-3-yl)isoindoline-1,3-dione]		4.8 ± 2.7	870	47.5	15.5	75.8	0.5 to 10	1 to 10	379	bioavailability ([9]; IP, 2 mg/kg): 122%; half-life [9, 15]: 1.62 h; Tmax [9, 16]: ~2 h; clearance ([9]; IV, single dose 2 mg/kg): ~88.2 mL/min/kg; half-life [9, 17]: ~7.71 h; bioavailability ([9]; PO, 10 mg/kg): 34.4%; Tmax ([9]; PO, 10 mg/kg, read-out: Tmax): 3.33 h; half-life [9, 18]: 2.13 h; GI50 (Ba/F3 (EML4-ALK/WT)): 33.6 nM
COc1cc(N2CCC(NC(=O)CCCCCCCCC(=O)N[C@H](C(=O)N3C[C@H](O)C[C@H]3C(=O)NCc3ccc(-c4scnc4C)cc3)C(C)(C)C)CC2)ccc1Nc1ncc(Cl)c(Nc2ccccc2P(C)(C)=O)n1 [SIAIS164149, N1-(1-(4-((5-chloro-4-((2-(dimethylphosphoryl)phenyl)amino)pyrimidin-2-yl)amino)-3-methoxyphenyl)piperidin-4-yl)-N10-((S)-1-((2S,4R)-4-hydroxy-2-((4-(4-methylthiazol-5-yl)benzyl)carbamoyl)pyrrolidin-1-yl)-3,3-dimethyl-1-oxobutan-2-yl)decanediamide]		2.3 ± 2	988				1 to 10		187	DC50 (nM)) in H3122 [8]: 0.02 to 20 nM
